System: SARS-CoV-2 variants (D614G, UK B.1.1.7, SA B.1.351, Brazil P.1)
Format: cell-based

| Structure (SMILES) | reduction of SARS-CoV-2 variant titers |
| --- | --- |
| O=C([O-])CCN1C(=O)/C(=C/c2ccc(-c3ccc([N+](=O)[O-])cc3)o2)SC1=S.[K+] [KYA1797K] | 85-96% |
| Cc1cc(/C=C/c2ccc3cc(N(C)C)ccc3[n+]2C)c(C)n1-c1ccccc1 [Pyrvinium] | 77-96% |

Source: patent US20230293565A1, “USE OF WNT/BETA-CATENIN PATHWAY INHIBITORS TO BLOCK REPLICATION OF SARS-COV-2 AND OTHER PATHOGENIC VIRUSES” (THE GOVERNORS OF THE UNIVERSITY OF ALBERTA, priority 2020, published 2023)
